Results as given in paper PMC5823845 (Bioorganic & Medicinal Chemistry, 2018).
Like-named read-outs stand apart in the source and are kept apart here.

What was measured:
mouse RAR beta receptor = target: T1, mouse RAR beta receptor (Mus musculus, UniProt P22605); conditions: ratio of relative EC50s RARβ/RARα
T1 sequence (P22605 210-444 limits assumed): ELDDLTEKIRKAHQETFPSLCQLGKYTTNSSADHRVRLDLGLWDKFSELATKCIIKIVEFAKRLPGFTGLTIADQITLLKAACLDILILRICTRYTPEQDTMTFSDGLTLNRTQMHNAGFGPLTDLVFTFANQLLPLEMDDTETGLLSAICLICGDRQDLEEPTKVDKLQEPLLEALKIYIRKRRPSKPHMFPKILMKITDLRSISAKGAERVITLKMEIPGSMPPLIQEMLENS

mouse RAR gamma receptor = target: T2, mouse RAR gamma receptor (Mus musculus, UniProt P18911)
T2 sequence (P18911 185-419 limits assumed): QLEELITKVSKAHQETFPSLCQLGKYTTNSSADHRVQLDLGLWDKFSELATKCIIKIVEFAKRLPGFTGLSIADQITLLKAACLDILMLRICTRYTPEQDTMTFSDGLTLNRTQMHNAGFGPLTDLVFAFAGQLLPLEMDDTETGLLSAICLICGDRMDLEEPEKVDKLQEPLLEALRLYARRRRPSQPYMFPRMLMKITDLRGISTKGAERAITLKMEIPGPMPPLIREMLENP

[1] = Log D pH 7.4, octanol/buffer shake flask method
Description: Briefly, octanol (pre-saturated with buffer) is added to the test compound and sonicated. Buffer at pH 7.4 (presaturated with octanol) is then added to the octanol. […] The system is mixed to allow distribution of the compound between the two phases.
Log D = Log (Coct / Caq ). Where: Coct = Concentration in octanol sample (corrected for dilution) and Caq = Concentration in aqueous sample (corrected for dilution)

PK studies in rats = assay type: in vivo, Sprague-Dawley rats; conditions: for rat pK AUC po: 10 mg/kg po, 8% Ethanol/92% PEG-400, n = 4; for rat pK Cl: iv 0.5 mg/kg; for rat pK Cl / bioavailability: n = 4; for bioavailability: male, Sprague-Dawley, rat, 10 mg/kg po vs 0.5 mg/kg iv, read-out: rat pK F%
Description: The Test Items were orally administered at a dose of 10 mg/kg and a dosing volume of 10 mL/kg. […] The Test Items were intravenously administered at a dose of 0.5 mg/kg and a dosing volume of 2 mL/kg. […] Whole blood concentrations of the Test Items were measured using LC-MS/MS and selected pharmacokinetic parameters calculated using Pharsight WinNonLin software. For furthers details see Supplementary data file.

[2] = Intrinsic clearance in liver microsomes; assay type: in vitro ADME; conditions: 37 °C, NADPH, 45 min, mean of 5
Description: The reaction is terminated by the addition of methanol. Following centrifugation, the supernatant is analyzed on the LC-MS/MS. […] The data is the mean on 5 separate experiments.
The ln peak area ratio (compound peak area/internal standard peak area) is plotted against time and the gradient of the line determined.
(see Supplementary data file for details).

mouse RAR alpha receptor = target: T3, mouse RAR alpha receptor (Mus musculus, UniProt P11416); conditions: relative to the amplitude of the normalizing ATRA output
T3 sequence (P11416 183-417 limits assumed): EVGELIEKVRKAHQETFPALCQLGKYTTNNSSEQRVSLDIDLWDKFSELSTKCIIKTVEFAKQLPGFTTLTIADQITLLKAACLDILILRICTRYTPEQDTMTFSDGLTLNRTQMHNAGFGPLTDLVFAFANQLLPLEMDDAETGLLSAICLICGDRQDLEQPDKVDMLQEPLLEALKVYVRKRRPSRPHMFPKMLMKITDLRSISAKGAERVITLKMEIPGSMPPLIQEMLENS

[3] = mouse, ratio of relative EC50s RARγ/RARα
[4] = liver microsomes, human microsomes
[5] = liver microsomes, mouse microsomes

Row | Structure (SMILES) | β/α ratio (mouse RAR beta receptor) | γ/α ratio (mouse RAR gamma receptor; [3]) | logD [1] | microsomal CLint [2, 4] [µL/min/mg] | microsomal CLint [2, 5] [µL/min/mg] | also measured
1 | CC1(C)CCC(C)(C)c2c1cc(C(=O)Nc1cc(F)c(C(=O)O)c(F)c1)c(O)c2Cl [Compound 4, reference compound] | 141 | – | – | – | – | γ/α ratio (mouse RAR gamma receptor): 867
2 | CCCOc1c(Cl)cc(C(=O)Nc2ccc(C(=O)O)cc2)cc1Cl [Compound 12] | 9.5 | 82 | – | – | – | –
3 | CCCCOc1c(Cl)cc(C(=O)Nc2ccc(C(=O)O)cc2)cc1Cl [Compound 13] | 8.5 | 18 | – | – | – | –
4 | CC(C)Oc1c(Cl)cc(C(=O)Nc2ccc(C(=O)O)cc2)cc1Cl [Compound 14] | 205 | 119 | – | – | – | –
5 | O=C(O)c1ccc(NC(=O)c2cc(Cl)c(OC3CCCC3)c(Cl)c2)cc1 [Compound 15, 4-(3,5-Dichloro-4-(cyclopentyloxy)benzamido)benzoic acid] | – | – | 2.8 | 26 | 83 | rat pK AUC po (PK studies in rats): 1674 ng·min mL^−1; rat pK Cl (PK studies in rats): 2 mL/kg/min; bioavailability (PK studies in rats; whole blood): 0.3%
6 | CC(C)(C)Oc1c(Cl)cc(C(=O)Nc2ccc(C(=O)O)cc2)cc1Cl [Compound 16, 4-(4-(tert-Butoxy)-3,5-dichlorobenzamido)benzoic acid] | – | – | 2.6 | 16 | 91 | –
7 | CCOc1c(Cl)cc(C(=O)Nc2ccc(C(=O)O)c(F)c2)cc1Cl [Compound 17] | 80 | >80 | – | – | – | –
8 | CCOc1c(Cl)cc(C(=O)Nc2ccc(C(=O)O)c(C)c2)cc1Cl [Compound 18, 4-(3,5-Dichloro-4-ethoxybenzamido)-2-methylbenzoic acid] | – | – | 1.7 | 14 | 38 | rat pK AUC po (PK studies in rats): 74,396 ng·min mL^−1; rat pK Cl (PK studies in rats): 1.6 mL/kg/min; bioavailability (PK studies in rats; whole blood): 12%
9 | CCOc1c(Cl)cc(C(=O)Nc2ccc(C(=O)O)c(O)c2)cc1Cl [Compound 19, 4-(3,5-Dichloro-4-ethoxybenzamido)-2-hydroxybenzoic acid] | 37 | 149 | – | – | – | –
10 | CCOc1c(Cl)cc(C(=O)Nc2ccc(C(=O)O)c(Cl)c2)cc1Cl [Compound 20] | 64 | >50 | – | – | – | –
11 | CCOc1c(Cl)cc(C(=O)Nc2ccc(C(=O)O)c(C(F)(F)F)c2)cc1Cl [Compound 21] | 1.5 | 11 | – | – | – | –
12 | CCOc1c(Cl)cc(NC(=O)c2ccc(C(=O)O)cc2)cc1Cl [Compound 26, 4-(3,5-Dichloro-4-ethoxyphenylcarbamoyl)benzoic acid] | 12 | >3600 | – | – | – | –
13 | CCOc1c(OC(C)C)cc(C(=O)Nc2ccc(C(=O)O)cc2)cc1OC(C)C [Compound 31, 4-(4-Ethoxy-3,5-diisopropoxybenzamido)benzoic acid] | – | – | 1.6 | – | – | RARα agonist type (partial / full agonist) (mouse RAR alpha receptor): partial RARα agonist; rat pK Cl (PK studies in rats): 1 mL/kg/min; bioavailability (PK studies in rats; in vivo): 81%; microsomal CLint ([2]; human microsomes): 4 µL/min/mg; microsomal CLint ([2]; mouse microsomes): 8 µL/min/mg
14 | CCOc1c(OC2CCCC2)cc(C(=O)Nc2ccc(C(=O)O)cc2)cc1OC1CCCC1 [Compound 32] | 145 | 19 | – | – | – | RARα agonist type (partial / full agonist) (mouse RAR alpha receptor): partial agonist activity
15 | CC(C)Oc1cc(C(=O)Nc2ccc(C(=O)O)cc2)cc(OC(C)C)c1OC(C)C [Compound 33] | 96 | 8 | – | – | – | RARα agonist type (partial / full agonist) (mouse RAR alpha receptor): partial agonist activity
16 | CCOc1cc(C(=O)Nc2ccc(C(=O)O)cc2)cc(OC(C)C)c1OCC [Compound 34] | 84 | 34 | – | – | – | RARα agonist type (partial / full agonist) (mouse RAR alpha receptor): full RARα agonist
17 | O=C(O)c1ccc(NC(=O)c2cc(Cl)c(OC3CCC3)c(OC3CCC3)c2)cc1 [Compound 40] | 22 | 447 | – | – | – | –

Row | Structure (SMILES) | β/α ratio (mouse RAR beta receptor) | γ/α ratio (mouse RAR gamma receptor; [3]) | logD [1] | microsomal CLint [2, 4] [µL/min/mg] | microsomal CLint [2, 5] [µL/min/mg] | also measured
18 | CC(C)(C)Oc1cc(C(=O)Nc2ccc(C(=O)O)cc2)cc(Cl)c1OC(C)(C)C [Compound 41, 4-(3,4-Di-tert-butoxy-5-chlorobenzamido)benzoic acid] | 44 | 189 | – | – | – | –
19 | O=C(O)c1ccc(NC(=O)c2cc(Cl)c(OC3CCCC3)c(OC3CCCC3)c2)cc1 [Compound 42, 4-[3-Chloro-4,5-bis(cyclopentyloxy)benzamido]benzoic acid] | 32 | 336 | – | – | – | –
20 | CC(C)Oc1cc(C(=O)Nc2ccc(C(=O)O)c(F)c2)cc(Cl)c1OC(C)C [Compound 43] | 34 | 300 | 2 | 6.9 | 18.8 | –
21 | Cc1cc(NC(=O)c2cc(Cl)c(OC(C)C)c(OC(C)C)c2)ccc1C(=O)O [Compound 44] | 45 | 2947 | 2.3 | 15 | 26.2 | rat pK AUC po (PK studies in rats): 77,670 ng·min mL^−1; rat pK Cl (PK studies in rats): 5.4 mL/kg/min; bioavailability (PK studies in rats; whole blood): 66%
22 | Cc1cc(NC(=O)c2cc(Cl)c(OC(C)(C)C)c(OC(C)(C)C)c2)ccc1C(=O)O [Compound 45] | – | 128 | 2.9 | – | – | microsomal CLint ([2]; human microsomes): 28.7 µL/min/mg; microsomal CLint ([2]; mouse microsomes): 36.2 µL/min/mg
23 | CCOc1c(Cl)cc(C(=O)Nc2ccc(C(=O)O)cc2)cc1OC(C)C [Compound 49, 4-(3-Chloro-4-ethoxy-5-isopropoxybenzamido)benzoic acid] | – | – | 1.7 | 11 | 41 | RARα agonist type (partial / full agonist) (mouse RAR alpha receptor): partial agonist
24 | CCOc1cc(C(=O)Nc2ccc(C(=O)O)cc2)cc(Cl)c1OC(C)C [Compound 52] | 3.1 | 570 | – | – | – | –
25 | COc1c(Cl)cc(C(=O)Nc2ccc(C(=O)O)c(F)c2)cc1OC(C)C [Compound 53] | 609 | 17,600 | 1 | 0.3 | 11 | rat pK AUC po (PK studies in rats): 10,871 ng·min mL^−1; rat pK Cl (PK studies in rats): 15 mL/kg/min; bioavailability (PK studies in rats; whole blood): 15%
26 | CCOc1c(Cl)cc(C(=O)Nc2ccc(C(=O)O)c(F)c2)cc1OC(C)C [Compound 54] | 487 | 6169 | 1.4 | 3.3 | 17.9 | rat pK AUC po (PK studies in rats): 15,376 ng·min mL^−1; rat pK Cl (PK studies in rats): 12 mL/kg/min; bioavailability (PK studies in rats; whole blood): 12%
27 | COc1c(Cl)cc(C(=O)Nc2ccc(C(=O)O)c(C)c2)cc1OC(C)C [Compound 55] | 241 | 509 | 1.3 | 1.5 | 10.6 | RARα agonist type (partial / full agonist) (mouse RAR alpha receptor): partial RARα agonist activity
28 | CCOc1cc(C(=O)Nc2ccc(C(=O)O)c(C)c2)cc(Cl)c1OC(C)C [Compound 57] | 286 | 1675 | 1.9 | 8.7 | 25.7 | –
29 | CCOc1c(Cl)cc(C(=O)Nc2ccc(C(=O)O)c(C)c2)cc1OC [Compound 58] | 210 | >250 | – | – | 18.4 | –
30 | CCOc1c(Cl)cc(C(=O)Nc2ccc(C(=O)O)c(C)c2)cc1OCC1CC1 [Compound 59] | 58 | 38,461 | – | – | 42.3 | –
31 | O=C(O)c1ccc(NC(=O)c2cc(Cl)c(O)c(Cl)c2)cc1 [Compound 60] | 7 | 55 | – | – | – | –
32 | COc1c(Cl)cc(C(=O)Nc2ccc(C(=O)O)cc2)cc1Cl [Compound 61] | 318 | 195 | – | – | – | –
33 | CCOc1cc(C(=O)Nc2ccc(C(=O)O)cc2)cc(OCC)c1OCC [Compound 62] | 174 | 16 | – | – | – | –
